In patent publication US11000515B2, “Compounds that interact with the Ras superfamily for the treatment of cancers, inflammatory diseases, rasopathies, and fibrotic disease” (Shy Therapeutics LLC, priority 2017, dated 2021):
Where two headings read alike, the source gives them in different places.

How the values were obtained:
[1] = test system: TNFα production in RAW 264.7 macrophage cell line; assay: Mouse TNF alpha quantification assay (LPS-stimulated RAW 264.7, ELISA); type: cell-based; conditions: RAW264.7, LPS-stimulated RAW 264.7 macrophage cell line, read-out: TNF-α % Inhibition at 30 μM
[2] = test system: IL6 production in RAW 264.7 macrophage cell line; assay: Mouse IL6 quantification assay (LPS-stimulated RAW 264.7, ELISA); type: cell-based; conditions: RAW264.7, LPS-stimulated RAW 264.7 macrophage cell line, read-out: IL-6 % Inhibition at 30 μM
[3] = biological target: KRas G12D/Q61H double mutant (Homo sapiens (Human), UniProt P01116, G12D/Q61H); assay: Ras GTP binding domain inhibition assay (labeled GTP)
Chain of KRas G12D/Q61H double mutant (P01116-2 other isoform, or with tags, fused parts or gaps G12D/Q61H): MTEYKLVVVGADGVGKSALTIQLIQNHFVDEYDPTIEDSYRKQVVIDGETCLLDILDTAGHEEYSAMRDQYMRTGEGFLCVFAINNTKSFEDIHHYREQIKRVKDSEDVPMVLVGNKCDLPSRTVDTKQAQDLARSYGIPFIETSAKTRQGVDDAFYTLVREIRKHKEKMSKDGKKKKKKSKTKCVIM
Protocol: (§1) Buffer-I: • 50 mM Tris, pH 7.5 • 150 mM NaCl (optional) • 1 mM MgCl2 • 1 mM DTT. • KRas G12D mutant protein was expressed as a His-tagged protein. Purified His-KRas G12D protein was diluted in buffer-I to a final concentration of 3-10 μg/ml. • 200 μl of the diluted His-KRas G12D protein was added to a nickel coated 96 well plate and incubated overnight at 4° C. • The next day, wells were washed 3× in 200 μl of Buffer-I. • Then 200 μl of Buffer-I were added to each well in the presence of 1% DMSO. • Tested compounds were added to the protein-coated wells at a concentration of 20 μM, and incubated for 3 hours at room temperature. While performing IC50 measurements a serial dilution of all tested concentrations was prepared.
(§2) Then 22 μl of Cy3-GTP or Cy5-GTP was added to each well. The labeled GTP was incubated for 45 min. at room temperature. • Following GTP incubation, wells were washed 3× in Buffer-I, and 200 μl of Buffer-I were added to each well. • Following washes, the amount of bound labeled-GTP was measured with an Eppendorf AF2200 plate reader.
(§3) By substituting KRas G12D mutant protein with KRas G12C mutant, KRas wild type, KRas Q61H mutant, KRas G12D/Q61H double mutant or KRas G12C/Q61H double mutant under the assay conditions described above, KRas G12C mutant KRas wild type, KRas Q61H mutant, KRas G12D/Q61H double mutant and KRas G12C/Q61H double mutant inhibition, respectively, were each determined.

KRas G12D mutant protein = KRas G12D mutant protein (Homo sapiens (Human), UniProt P01116, G12D); assay: as above; conditions: compound at 20 μM
Chain of KRas G12D mutant protein (P01116-2 other isoform, or with tags, fused parts or gaps G12D): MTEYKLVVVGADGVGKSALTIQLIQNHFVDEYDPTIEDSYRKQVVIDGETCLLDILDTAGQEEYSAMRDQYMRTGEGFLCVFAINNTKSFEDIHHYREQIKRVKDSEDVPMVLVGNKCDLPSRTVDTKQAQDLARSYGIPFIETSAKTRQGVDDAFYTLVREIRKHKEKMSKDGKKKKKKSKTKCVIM
Protocol: The following method was developed as specific assay for KRas G12D mutant protein.
as §1, §2

KRas G12C mutant = KRas G12C mutant (Homo sapiens (Human), UniProt P01116, G12C); assay: as above; conditions: compound at 20 μM
Chain of KRas G12C mutant (P01116-2 other isoform, or with tags, fused parts or gaps G12C): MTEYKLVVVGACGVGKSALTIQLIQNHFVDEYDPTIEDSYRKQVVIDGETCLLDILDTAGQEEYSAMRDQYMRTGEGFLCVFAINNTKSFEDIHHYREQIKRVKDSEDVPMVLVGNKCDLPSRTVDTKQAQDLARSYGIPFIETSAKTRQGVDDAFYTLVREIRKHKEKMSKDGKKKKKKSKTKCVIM
Protocol: as §1, §2, §3

KRas wild type = KRas wild type (Homo sapiens (Human), UniProt P01116); assay: as above; conditions: compound at 20 μM
Chain of KRas wild type (P01116-2 other isoform, or with tags, fused parts or gaps): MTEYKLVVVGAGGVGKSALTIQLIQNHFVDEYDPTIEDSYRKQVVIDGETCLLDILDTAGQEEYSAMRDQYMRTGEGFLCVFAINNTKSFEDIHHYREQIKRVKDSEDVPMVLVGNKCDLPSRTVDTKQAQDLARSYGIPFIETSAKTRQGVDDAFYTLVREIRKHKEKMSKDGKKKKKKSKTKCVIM
Protocol: as §1, §2, §3

[4] = biological target: KRas G12C/Q61H double mutant (Homo sapiens (Human), UniProt P01116, G12C/Q61H); assay: as above; conditions: compound at 20 μM
Chain of KRas G12C/Q61H double mutant (P01116-2 other isoform, or with tags, fused parts or gaps G12C/Q61H): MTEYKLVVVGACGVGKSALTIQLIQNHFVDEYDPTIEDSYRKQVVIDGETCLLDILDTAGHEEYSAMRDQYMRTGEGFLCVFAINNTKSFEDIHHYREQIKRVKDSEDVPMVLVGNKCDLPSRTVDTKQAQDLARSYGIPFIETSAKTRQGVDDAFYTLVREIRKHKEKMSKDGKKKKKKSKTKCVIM
Protocol: as §1, §2, §3

KRas Q61H mutant = KRas Q61H mutant (Homo sapiens (Human), UniProt P01116, Q61H); assay: as above; conditions: compound at 20 μM
Chain of KRas Q61H mutant (P01116-2 other isoform, or with tags, fused parts or gaps Q61H): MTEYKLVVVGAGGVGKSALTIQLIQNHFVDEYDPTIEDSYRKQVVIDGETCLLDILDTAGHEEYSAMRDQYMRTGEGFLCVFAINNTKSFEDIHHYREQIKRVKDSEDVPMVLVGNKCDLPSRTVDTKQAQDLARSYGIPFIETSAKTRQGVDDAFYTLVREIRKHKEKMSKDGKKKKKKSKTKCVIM
Protocol: as §1, §2, §3

[5] = 20 μM, read-out: KRas G12D Q61H % Inh.
[6] = compound at 20 μM, read-out: % Inhibition at 20 μM, KRas G12D Q61H

Compound | inhibition at 30 µM [1] [%] | inhibition at 30 µM [2] [%] | also measured
O=C(CCc1cnn(-c2ccccc2)c1)Nc1nnc(-c2ccccn2)[nH]1 | 1 to 25 | 26 to 50 | 
CC(C)C(=O)Nc1nc(CC(=O)Nc2nnc(-c3ccccc3)[nH]2)cs1 | 1 to 25 | 0 | 
O=C(Nc1nnc(-c2ccccn2)s1)c1csc(-c2ccco2)n1 | 0 | 51 to 75 | 
O=C(Nc1nc(-c2ccccn2)cs1)c1cccc(F)c1 | 0 | 1 to 25 | 
COc1cccc(C(=O)Nc2nc(-c3ccccn3)cs2)c1 | 0 | 1 to 25 | 
COc1ccc(C(=O)Nc2nc(-c3ccccn3)cs2)cn1 | 51 to 75 | 76 to 100 | 
O=C(c1csc2c(O)nc(-c3ccccn3)nc12)N1CCN(c2ccccc2)CC1 | 51 to 75 | 76 to 100 | 
Brc1csc2nc(-c3ccccn3)nc(Br)c12 | 76 to 100 | 76 to 100 | 
COc1cc(CNc2nc(-c3ccccn3)nc3scc(-c4ccccc4)c23)ccc1OCC(N)=O | 76 to 100 | 76 to 100 | 
CN(CC(=O)N1CCOCC1)c1nc(-c2ccccn2)nc2scc(-c3ccccc3)c12 | 1 to 25 | 1 to 25 | 
COc1cc(CCNC(=O)c2csc3nc(-c4ccccn4)nc(N4CCOCC4)c23)ccn1 | 0 | 1 to 25 | 
CC(C)(C(=O)Nc1cc(-c2ccccn2)nc2sccc12)c1ccc(C#N)cc1 | 1 to 25 | 76 to 100 | 
O=C(c1csc2c(O)nc(-c3ccccn3)nc12)N1CCNC(Cc2cccc(F)c2)C1 (centres unmarked) | 1 to 25 | 26 to 50 | 
O=C(NCCc1cnc(O)cn1)c1csc2nc(-c3ccccn3)nc(N3CCS(=O)(=O)CC3)c12 | 0 | 51 to 75 | 
CC(C)COc1ccc(-c2csc3c(O)nc(-c4ccccn4)nc23)nc1 | 51 to 75 | 76 to 100 | 
Nc1nc(-c2ccccn2)nc2scc(Br)c12 | 0 | 1 to 25 | 
Nc1nc(-c2ccccn2)nc2c(-c3ccccn3)csc12 | 76 to 100 | 76 to 100 | 
CN(C)Cc1cc(F)cc(-c2csc3c(O)nc(-c4ccccn4)nc23)c1 | 51 to 75 | 76 to 100 | 
COCCNc1nc(-c2cccc(C)n2)nc2sc(-c3ccccc3)c(-c3ccccc3)c12 | 26 to 50 | 26 to 50 | 
CC(C)COc1ccc(-c2csc3c(O)nc(-c4nccn4C)nc23)cn1 | 76 to 100 | 76 to 100 | 
CC(C)c1ccc(NC(=O)CCc2c(O)cc(-c3ccccn3)nc2O)cc1 |  |  | inhibition at 20 µM [3, 5]: 51 to 75%
CCN(CC)S(=O)(=O)c1cc(C)c(C)c(NC(=O)CCc2c(C)cc(-c3ccccn3)nc2O)c1 |  |  | inhibition at 20 µM [3, 5]: 51 to 75%
CS(=O)(=O)CCCC(=O)N1CCCc2c(O)nc(-c3ccccn3)nc21 |  |  | KRas G12D Q61H % Inh. ([3]; 20 μM): C (C = 51-75% inhibition)
O=C(CCCc1cccnc1)N1CCCc2c(O)nc(-c3ccccn3)nc21 |  |  | inhibition at 20 µM (KRas G12D mutant protein): 51 to 75%; inhibition at 20 µM (KRas G12C mutant): 51 to 75%; inhibition at 20 µM [3, 6]: 51 to 75%; inhibition at 20 µM (KRas wild type): 25 to 50%
O=C(c1csc2c(O)nc(-c3ccccn3)nc12)N1CCN(c2cccnc2)CC1 |  |  | inhibition at 20 µM (KRas G12D mutant protein): 51 to 75%; inhibition at 20 µM (KRas G12C mutant): 25 to 50%; inhibition at 20 µM [3, 6]: 51 to 75%; inhibition at 20 µM (KRas wild type): 76 to 100%
COc1ccc(CCOC(=O)Nc2ccnc(-c3ccccn3)n2)cn1 |  |  | inhibition at 20 µM [3, 6]: 25 to 50%
O=C(NCCc1cncs1)c1csc2nc(-c3ccccn3)nc(N3CCOCC3)c12 |  |  | inhibition at 20 µM [4]: 1 to 25%
Oc1nc(-c2ccccn2)nc2ccsc12 |  |  | inhibition at 20 µM (KRas G12D mutant protein): 1 to 25%; inhibition at 20 µM (KRas G12C mutant): 25 to 50%; inhibition at 20 µM [4]: 25 to 50%; inhibition at 20 µM [3, 6]: 25 to 50%; inhibition at 20 µM (KRas Q61H mutant): 51 to 75%; inhibition at 20 µM (KRas wild type): 1 to 25%
Cc1cc2nc(-c3ccccn3)nc(O)c2s1 |  |  | inhibition at 20 µM (KRas G12C mutant): 1 to 25%; inhibition at 20 µM (KRas wild type): 25 to 50%
Oc1nc(-c2ccccn2)nc2c(-c3ccccc3)csc12 |  |  | inhibition at 20 µM (KRas G12C mutant): 1 to 25%
